According to ChEMBL document CHEMBL1201862, “PubChem BioAssay data set” (2004):
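Exposure lasted 48 hours, with cells grown in 96-well plates and compounds tested at five concentrations. GI50: concentration for 50% inhibition of growth.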 Activity calls are given as the source filed them. No stated cut-off is given here; in the data, active = GI50 up to about 1.1 µM and inactive = higher.

Tests used:
Assay in all cases: NCI anticancer screen, dose series, 48 h
786-0 = system: 786-0
A498 = system: A498
A549 = system: A549
ACHN = system: ACHN
CAKI-1 = system: CAKI-1
CCRF-CEM = system: CCRF-CEM
COLO 205 = system: COLO 205
DU-145 = system: DU-145
EKVX = system: EKVX
HCC 2998 = system: HCC 2998
HCT-116 = system: HCT-116
HCT-15 = system: HCT-15
HL-60 = system: HL-60
HOP-62 = system: HOP-62
HOP-92 = system: HOP-92
HT-29 = system: HT-29
Hs-578T = system: Hs-578T
IGROV-1 = system: IGROV-1
K562 = system: K562
KM12 = system: KM12
LOX IMVI = system: LOX IMVI
M14 = system: M14
MCF7 = system: MCF7
MDA-MB-231 = system: MDA-MB-231
MDA-MB-435 = system: MDA-MB-435
MDA-N = system: MDA-N
MOLT-4 = system: MOLT-4
Malme-3M = system: Malme-3M
NCI-H226 = system: NCI-H226
NCI-H23 = system: NCI-H23
NCI-H460 = system: NCI-H460
NCI-H522 = system: NCI-H522
NCI/ADR-RES = system: NCI/ADR-RES
OVCAR-3 = system: OVCAR-3
OVCAR-4 = system: OVCAR-4
OVCAR-5 = system: OVCAR-5
OVCAR-8 = system: OVCAR-8
PC-3 = system: PC-3
RPMI-8226 = system: RPMI-8226
RXF 393 = system: RXF 393
SF-268 = system: SF-268
SF-295 = system: SF-295
SF-539 = system: SF-539
SK-MEL-28 = system: SK-MEL-28
SK-MEL-5 = system: SK-MEL-5
SK-OV-3 = system: SK-OV-3
SN12C = system: SN12C
SNB-19 = system: SNB-19
SNB-75 = system: SNB-75
SR = system: SR
SW-620 = system: SW-620
T47D = system: T47D
TK-10 = system: TK-10
U-251 = system: U-251
UACC-257 = system: UACC-257
UACC-62 = system: UACC-62
UO-31 = system: UO-31

Cc1ccc2c(c1)C(=O)C1(C2)Cc2cccc(C)c2C1=O (configuration not stated)
GI50 (786-0): > 100 µM (inactive)
GI50 (A498): > 100 µM (inactive)
GI50 (A549): > 100 µM (inactive)
GI50 (ACHN): > 100 µM (inactive)
GI50 (CAKI-1): 0.0418 µM (active)
GI50 (CCRF-CEM): > 100 µM (inactive)
GI50 (COLO 205): > 100 µM (inactive)
GI50 (DU-145): > 100 µM (inactive)
GI50 (EKVX): > 100 µM (inactive)
GI50 (HCC 2998): > 100 µM (inactive)
GI50 (HCT-116): > 100 µM (inactive)
GI50 (HCT-15): > 100 µM
GI50 (HL-60): > 100 µM (inactive)
GI50 (HOP-62): 88.9 µM (inactive)
GI50 (HOP-92): 55 µM (inactive)
GI50 (HT-29): > 100 µM (inactive)
GI50 (Hs-578T): > 100 µM (inactive)
GI50 (IGROV-1): > 100 µM (inactive)
GI50 (K562): > 100 µM (inactive)
GI50 (KM12): > 100 µM (inactive)
GI50 (LOX IMVI): > 100 µM (inactive)
GI50 (M14): > 100 µM (inactive)
GI50 (MCF7): > 100 µM (inactive)
GI50 (MDA-MB-231): > 100 µM (inactive)
GI50 (MDA-MB-435): > 100 µM (inactive)
GI50 (MDA-N): > 100 µM (inactive)
GI50 (MOLT-4): > 100 µM (inactive)
GI50 (Malme-3M): > 100 µM (inactive)
GI50 (NCI-H226): > 100 µM (inactive)
GI50 (NCI-H23): > 100 µM (inactive)
GI50 (NCI-H460): > 100 µM (inactive)
GI50 (NCI-H522): > 100 µM (inactive)
GI50 (NCI/ADR-RES): > 100 µM (inactive)
GI50 (OVCAR-3): > 100 µM (inactive)
GI50 (OVCAR-4): > 100 µM (inactive)
GI50 (OVCAR-5): > 100 µM (inactive)
GI50 (OVCAR-8): > 100 µM (inactive)
GI50 (PC-3): > 100 µM (inactive)
GI50 (RPMI-8226): > 100 µM (inactive)
GI50 (RXF 393): > 100 µM (inactive)
GI50 (SF-268): > 100 µM (inactive)
GI50 (SF-295): > 100 µM (inactive)
GI50 (SF-539): > 100 µM (inactive)
GI50 (SK-MEL-28): > 100 µM (inactive)
GI50 (SK-MEL-5): > 100 µM (inactive)
GI50 (SK-OV-3): > 100 µM (inactive)
GI50 (SN12C): > 100 µM (inactive)
GI50 (SNB-19): 35.2 µM (inactive)
GI50 (SNB-75): > 100 µM (inactive)
GI50 (SR): > 100 µM (inactive)
GI50 (SW-620): > 100 µM (inactive)
GI50 (T47D): > 100 µM (inactive)
GI50 (TK-10): > 100 µM (inactive)
GI50 (U-251): > 100 µM (inactive)
GI50 (UACC-257): > 100 µM (inactive)
GI50 (UACC-62): 77.3 µM (inactive)
GI50 (UO-31): 4.41 µM (inactive)
